# Test results: the supplement of paper PMC10307832
# Assays:
# Experiment in all cases: relative viability (nuclei count vs DMSO), 5 days (fraction); higher = more cells survive
# [1] = compound: Cn1cnc2c(F)c(Nc3ccc(Br)cc3Cl)c(C(=O)NOCCO)cc21 [Selumetinib] + CC(C)C[C@H](NC(=O)[C@H](Cc1ccccc1)NC(=O)c1cnccn1)B(O)O [Bortezomib] (partner 0.002 µM)
# Summary of the method: (§1)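 Five library-drug doses in √10 steps were combined with a fixed anchor-drug dose, or a single drug was given alone, by pin tool to lung cancer cell lines in 1536-well plates the day after seeding. Nuclei were stained and counted after 5 days. Relative viability is the nuclei count in treated wells over that in vehicle wells, taken as the median of duplicate plates.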
# [2] = compound: Cn1cnc2c(F)c(Nc3ccc(Br)cc3Cl)c(C(=O)NOCCO)cc21 [Selumetinib] + COc1cccc2cc(-c3nc([C@H]4CC[C@H](C(=O)O)CC4)n4ncnc(N)c34)[nH]c12 [OSI-027] (partner 0.5 µM)
# Summary of the method: as §1
# [3] = compound: Cn1cnc2c(F)c(Nc3ccc(Br)cc3Cl)c(C(=O)NOCCO)cc21 [Selumetinib] + COc1cc2c(Oc3ccc(NC(=O)C4(C(=O)Nc5ccc(F)cc5)CC4)cc3F)ccnc2cc1OCCCN1CCOCC1 [Foretinib] (partner 0.25 µM)
# Summary of the method: as §1
# [4] = compound: CC1(C)CCC(CN2CCN(c3ccc(C(=O)NS(=O)(=O)c4ccc(NCC5CCOCC5)c([N+](=O)[O-])c4)c(Oc4cnc5[nH]ccc5c4)c3)CC2)=C(c2ccc(Cl)cc2)C1 [Venetoclax] + C[C@]1(O)C[C@@H](c2nc(-c3ccc4ccc(-c5ccccc5)nc4c3)c3c(N)nccn32)C1 [Linsitinib] (partner 1 µM)
# Summary of the method: as §1
cell line,measurement,setting,value
UMC-11,relative viability,[1]; first compound 0.02 µM,0.685
same,relative viability,[1]; first compound 0.06325 µM,0.589
same,relative viability,[1]; first compound 0.2 µM,0.974
same,relative viability,[1]; first compound 0.6325 µM,0.848
same,relative viability,[2]; first compound 0.02 µM,0.459
same,relative viability,[2]; first compound 0.06325 µM,0.471
same,relative viability,[2]; first compound 0.2 µM,0.379
same,relative viability,[2]; first compound 0.6325 µM,0.45
same,relative viability,[3]; first compound 0.02 µM,1.05
same,relative viability,[3]; first compound 0.06325 µM,1.11
same,relative viability,[3]; first compound 0.2 µM,1.05
same,relative viability,[3]; first compound 0.6325 µM,1.04
same,relative viability,[4]; first compound 0.01 µM,1
same,relative viability,[4]; first compound 0.03162 µM,1.01
same,relative viability,[4]; first compound 0.1 µM,0.912
same,relative viability,[4]; first compound 0.3162 µM,0.932
same,relative viability,[4]; first compound 1 µM,0.959
